Series [1] has as its system IgE (reaginic antiserum) PCA reaction. Nature of the series: Oral activity in PCA test, IgE. The series is classed as in vivo, rat. The conditions noted are these: Rattus norvegicus, IgE, oral. On the procedure:
(§1) The antiallergy property of the compounds of this invention is evaluated by the passive cutaneous anaphylaxis (PCA) test (Ovary, J. Immun., 81, 355, 1958). In the PCA test, normal animals are injected intradermally (i.d.) with antibodies contained in serum obtained from actively sensitized animals. The animals are then challenged intravenously with antigen mixed with a dye such as Evans' Blue. The increased capillary permeability caused by the antigen-antibody reaction causes the dye to leak from the site of the antibody injection. The test animals are then asphyxiated and the intensity of the reaction determined by measuring the diameter and intensity of the blue coloration on the inner surface of the animals' skin.
The PCA test is a measure of the anti-allergic (especially anti-asthmatic) activity of a compound. Compounds which inhibit a positive PCA test induced by the rat immunochemical counterpart of human immunoglobulin E (IgE), or reagin, are considered to have anti-allergic activity (C. Mota, Ann. N.Y. Acad. Sci., 103, 264 1963). (Reagin is primarily immunoglobulin E [IgE] and is the principal immunoglobulin responsible for allergic asthma, anaphylaxis, hay fever, food sensitivities and certain manifestations of drug sensitivities, although recent evidence ascribes to the IgG class of antibodies a significant role in the mediation of allergic diseases). Such compounds when administered to a sensitized subject, human or animal, prior to the time when the subject comes into contact with antigens or substances to which it is allergic, will prevent the allergic reaction which would otherwise occur. They, therefore, provide a method for the prophylactic treatment of allergy or anaphylactic reactions of a reagin mediated nature.
To put it another way, such compounds block the release of mediators resulting from the antigen-antibody (allergic) reaction as illustrated in the PCA test using rat homocytotropic antibody--a known correlate of human reaginic antibody. Inhibition of reaginic antigen-antibody reactions in rats, the test animal of the PCA test, is regarded as representative of inhibition of human reaginic antigen-antibody reactions which occur during allergic episodes.
The ability of agents to interfere with PCA reactions is measured in male Charles River Wistar rats, 170-210 g. Reaginic antiserum, rich in IgE antibodies, is prepared according to Petillo et al., Int. Arch. Allergy, 44, 309 (1973). Hyperimmune antiserum rich in IgG antibodies to hen egg albumin is prepared according to Orange et al., J. Exptl. Med., 127, 767 (1968). Forty-eight hours prior to antigen challenge, the reaginic antiserum is injected intradermally (i.d.) into the shaved skin of a normal rat's back; 5 hours before challenge the hyperimmune antisera is similarly injected. At a third site 60 mcg. histamine dihydrochloride and 0.5 mcg. serotonin creatinine sulfate are injected i.d. just prior to antigen challenge as a check for antihistaminic, antiserotonin and unspecific types of blockage; the compounds of the instant invention or saline are then administered i.v. and immediately followed by the challenge of 5 mg. egg albumen and 2.5 mg. Evans' Blue dye in saline. In the case of oral administration Evans' Blue dye and egg albumin are given 5 minutes after administration of the drug. Thirty minutes later the animals are asphyxiated using chloroform and the skin of the back removed and reversed for observation. A score is assigned each injection site equal to the product of the diameter of the site in mm. and a grade of 0.1, 0.5, 1, 2, 3 or 4 proportional to intensity of dye coloration. The scores for a given injection site are summed for each group of five animals and compared to the saline treated controls. The difference is expressed as percent blockage due to the compound employed. […]

Series [2] deals with IgG (hyperimmune antiserum) PCA reaction. Briefly: Oral activity in PCA test, IgG. The series is classed as in vivo. The conditions noted are these: Rattus norvegicus. On the procedure: as §1
The ability of agents to interfere with PCA reactions is measured in male Charles River Wistar rats, 170-210 g. Reaginic antiserum, rich in IgE antibodies, is prepared according to Petillo et al., Int. Arch. Allergy, 44, 309 (1973). Hyperimmune antiserum rich in IgG antibodies to hen egg albumin is prepared according to Orange et al., J. Exptl. Med., 127, 767 (1968). Forty-eight hours prior to antigen challenge, the reaginic antiserum is injected intradermally (i.d.) into the shaved skin of a normal rat's back; 5 hours before challenge the hyperimmune antisera is similarly injected. At a third site 60 mcg. histamine dihydrochloride and 0.5 mcg. serotonin creatinine sulfate are injected i.d. just prior to antigen challenge as a check for antihistaminic, antiserotonin and unspecific types of blockage; the compounds of the instant invention or saline are then administered i.v. and immediately followed by the challenge of 5 mg. egg albumen and 2.5 mg. Evans' Blue dye in saline. In the case of oral administration Evans' Blue dye and egg albumin are given 5 minutes after administration of the drug. Thirty minutes later the animals are asphyxiated using chloroform and the skin of the back removed and reversed for observation. A score is assigned each injection site equal to the product of the diameter of the site in mm. and a grade of 0.1, 0.5, 1, 2, 3 or 4 proportional to intensity of dye coloration. The scores for a given injection site are summed for each group of five animals and compared to the saline treated controls. The difference is expressed as percent blockage due to the compound employed.
Compounds representative of those of the present invention are tested for antiallergy activity by the above-described procedure and the resulting activities are reported as the degree (%) of protection.

Series [3] deals with ethanol-induced ulcer. Nature of the series: Ethanol-induced rat ulcer assay. In kind it is in vivo. The conditions noted are these: oral, 5 mg./kg.; for % Inhibition in the Ethanol-Induced Rat Ulcer Assay, amides: Table III; for % Inhibition in the Ethanol-Induced Rat Ulcer Assay, acids: Table IV. On the procedure: Alternatively, the effectiveness of the products of this invention as antiulcer agents is determined in an ethanol-induced rat ulcer assay. In this test, overnight fasted male rats are given drug (5 mg./kg.) or water orally fifteen minutes prior to an orally administered dose of absolute ethanol (1.0 ml.). One hour after the ethanol challenge the animals (8/group) are killed and the stomachs examined for the presence of lesions. All drugs were dissolved in dilute NaOH. After sacrifice the abdomen is opened and a locking hemostat placed at the pylorus. 6 ml. of a 4% solution of formaldehyde was injected into the stomach with a gastric feeding tube and a second locking hemostat was used to seal the esophagus. The stomach was removed, opened along the greater curvature and examined for ulceration.
The scoring system used to quantitate the ethanol-induced lesions is given below.
For each group of animals an ulcer index is calculated as follows:
Ulceration Index=(the sum of the scores of the group)×(the sum of the number of ulcers in the group)×(the fraction of the group having any incidence of ulceration).
The percentage inhibition of ulcers is calculated as follows:
% Inhibition=100×[(ulcer index controls)-(ulcer index drug-treated)].div.(ulcer index controls).

A short description of series [4]: Oral absorption and plasma concentrations, rats. The series is classed as in vivo, rat. The conditions noted are these: after oral administration of III. On the procedure:
(§2) This is supported by the observations of plasma concentrations of 3 to 7 μg/ml one hour after oral administration of III, 50 to 300 mg/kg.

Series [5] is described as follows: Oral absorption and plasma concentrations, dogs. In kind it is in vivo, dog. The conditions noted are these: after oral administration of III. On the procedure: as §2
Series [6] is described as follows: Plasma levels after repeated daily dosing. In kind it is in vivo. The conditions noted are these: after the eighth daily dose of III. On the procedure:
as §2

Series [7] can be described thus: Water solubility and hygroscopicity. In kind it is physicochemical.
Setting [8] is: read-out: Oral Activity (% of Protection) in the PCA Test, IgE.
The mark [9] stands for this setting: read-out: Oral Activity (% of Protection) in the PCA Test, IgG.
The mark [10] stands for this setting: Table I amides, read-out: Oral Activity (% of Protection) in the PCA Test, IgE.
[11] abbreviates: Table I amides, read-out: Oral Activity (% of Protection) in the PCA Test, IgG.
The mark [12] stands for this setting: Table II acids, read-out: Oral Activity (% of Protection) of Acids in the PCA Test, IgE.
The mark [13] stands for this setting: Table II acids, read-out: Oral Activity (% of Protection) of Acids in the PCA Test, IgG.

Structures can show the parent of a compound that is named as a salt. Where two headings read alike, the source gives them in different places.

As for `Cc1csc2ncc(C(=O)Nc3nnn[nH]3)c(=O)n12` [Formula I: R1=H, R2=CH3, N-(5-Tetrazolyl)-1-oxo-1H-7-methylthiazolo[3,2-a]pyrimidine-2-carboxamide], the inhibition in vivo at 3 mg/kg in series [1] (setting [8]) came out at 55%; in series [2] (setting [9]) it was 50%. In addition, in series [3], the “% Inhibition in the Ethanol-Induced Rat Ulcer Assay, amides” value (“% Inhibition … amides” below) came out at 59%.

For the compound `Cc1cn2c(=O)c(C(=O)Nc3nnn[nH]3)cnc2s1` [Formula I: R1=CH3, R2=H, N-(5-Tetrazolyl)-1-oxo-1H-6-methylthiazolo[3,2-a]pyrimidine-2-carboxamide], the inhibition in vivo at 30 mg/kg in series [1] (setting [10]) came out at 78%; in series [2] (setting [11]), 55%. Also, in series [3], the “% Inhibition … amides” value is recorded as 72%.

Turning to `CCc1cn2c(=O)c(C(=O)O)cnc2s1` [Formula II: R1=C2H5, R2=H, 1-Oxo-1H-6-ethylthiazolo[3,2-a]pyrimidine-2-carboxylic Acid], the inhibition in vivo at 30 mg/kg in series [1] (setting [12]) was 45%; in series [2] (setting [13]), 38%. In addition, in series [3], the “% Inhibition in the Ethanol-Induced Rat Ulcer Assay, acids” value (“% Inhibition … acids” below) was determined as 48%.

Consider `O=C(Nc1nnn[nH]1)c1cnc2sc3c(n2c1=O)CCCCCC3` [Formula I: (CH2)6, N-(5-Tetrazolyl)-1-oxo-1H-cyclooctenothiazolo[3,2-a]pyrimidine-2-carboxamide], for which the results for the inhibition in vivo at 30 mg/kg in series [1] (setting [10]) and in series [2] (setting [11]) were 94% and 57%, respectively. For the same compound, in series [3], the “% Inhibition … amides” value is given as 45%.

In the case of `O=C(O)c1cnc2sc3c(n2c1=O)CCCC3` [Formula II: (CH2)4, 1-Oxo-1H-cyclohexenothiazolo[3,2-a]pyrimidine-2-carboxylic Acid], the inhibition in vivo at 10 mg/kg in series [1] (10 mg./kg., Table II acids, read-out: Oral Activity (% of Protection) of Acids in the PCA Test, IgE) was found to be 55%; in series [2] (10 mg./kg., Table II acids, read-out: Oral Activity (% of Protection) of Acids in the PCA Test, IgG), 39%. Further, the “% Inhibition … acids” value in series [3] is reported as 21%. The “plasma levels of carboxylic acid metabolite” value in series [4] and in series [5] was “comparable to those of III” each time. Besides, in series [6], the “levels after the eighth daily dose relative to initial dose” value was 2 to 4 times.

`CCc1sc2ncc(C(=O)Nc3nnn[nH]3)c(=O)n2c1CC` [Formula I: R1=C2H5, R2=C2H5, N-(5-Tetrazolyl)-1-oxo-1H-6,7-diethylthiazolo[3,2-a]pyrimidine-2-carboxamid]: the inhibition in vivo at 30 mg/kg in series [1] (setting [10]) turned out to be 62%; in series [2] (setting [11]), 49%. For the same compound, the “% Inhibition … amides” value in series [3] is given as 10%.

For the compound `CCc1sc2ncc(C(=O)O)c(=O)n2c1CC` [Formula II: R1=C2H5, R2=C2H5, 1-Oxo-1H-6,7-diethylthiazolo[3,2-a]pyrimidine-2-carboxylic Acid], the inhibition in vivo at 30 mg/kg was 41% in series [1] (setting [12]) and 32% in series [2] (setting [13]). Moreover, in series [3], the “% Inhibition … acids” value was determined as 48%.

With `CCc1cn2c(=O)c(C(=O)Nc3nnn[nH]3)cnc2s1` [Formula I: R1=C2H5, R2=H, N-(5-Tetrazolyl)-1-oxo-1H-6-ethylthiazolo[3,2-a]pyrimidine-2-carboxamide], the results for the inhibition in vivo at 30 mg/kg in series [1] (setting [10]) and in series [2] (setting [11]) were 85% and 58%, respectively. Moreover, the “% Inhibition … amides” value in series [3] turned out to be 86%.

`Cc1sc2ncc(C(=O)O)c(=O)n2c1C` [Formula II: R1=CH3, R2=CH3, 1-Oxo-1H-6,7-dimethylthiazolo[3,2-a]pyrimidine-2-carboxylic Acid]: the inhibition in vivo at 30 mg/kg in series [1] (setting [12]) and in series [2] (setting [13]) was 0% in each case. Also, the “% Inhibition … acids” value in series [3] amounted to 11%.

For the compound `Cc1sc2ncc(C(=O)Nc3nnn[nH]3)c(=O)n2c1C` [Formula I: R1=CH3, R2=CH3, N-(5-Tetrazolyl)-1-oxo-1H-6,7-dimethylthiazolo[3,2-a]pyrimidine-2-carboxamide], the inhibition in vivo at 3 mg/kg stood at 55% in series [1] (setting [8]) and 51% in series [2] (setting [9]). In addition, in series [3], the “% Inhibition … amides” value was 96%.

As for `O=C(Nc1nnn[nH]1)c1cnc2sc3c(n2c1=O)CCCC3` [sodium salt (trihydrate), sodium N-(5-tetrazolyl)-1-oxo-1H-cyclohexenothiazolo[3,2-a]pyrimidine-2-carboxamide trihydrate], in series [7], the hygroscopicity result is recorded as “non-hygroscopic” and the water solubility entry was “good water solubility”.

Turning to `Cc1cn2c(=O)c(C(=O)O)cnc2s1` [Formula II: R1=CH3, R2=H, 1-Oxo-1H-6-methylthiazolo[3,2-a]pyrimidine-2-carboxylic Acid], the results for the inhibition in vivo at 30 mg/kg in series [1] (setting [12]) and in series [2] (setting [13]) were 12% and 14%, respectively. The “% Inhibition … acids” value in series [3] is reported as 0%.

With `Cc1csc2ncc(C(=O)O)c(=O)n12` [Formula II: R1=H, R2=CH3, 1-Oxo-1H-7-methylthiazolo[3,2-a]pyrimidine-2-carboxylic acid], the values for the inhibition in vivo at 30 mg/kg in series [1] (setting [12]) and in series [2] (setting [13]) were 18% and 19%, respectively. Also, the “% Inhibition … acids” value in series [3] is 27%.

These data come from patent US4535081A, “Antiallergic and antiulcer 1-oxo-1H-thiazolo[3,2-a]pyrimidine-2-carboxamides and intermediates therefor” (Pfizer Inc., priority 1983, dated 1985).
